EC50, hTGR5 % trans and mTGR5 % trans data for nine compounds are collected here from patent US9932309B2, “2-oxo-3,4-dihydropyridine-5-carboxylates and their use” (UNIVERSITE DE LILLE 2 DROIT ET SANTE, priority 2014, dated 2018).

Experiment [1] concerns the target T1, hTGR5 (Homo sapiens, UniProt Q8TDU6).
T1 construct: expressed in transfected cells; host or cells: HEK293 cells, transiently co-transfected with the pCRE TA-Luciferase reporter
T1 sequence (Q8TDU6 1-330): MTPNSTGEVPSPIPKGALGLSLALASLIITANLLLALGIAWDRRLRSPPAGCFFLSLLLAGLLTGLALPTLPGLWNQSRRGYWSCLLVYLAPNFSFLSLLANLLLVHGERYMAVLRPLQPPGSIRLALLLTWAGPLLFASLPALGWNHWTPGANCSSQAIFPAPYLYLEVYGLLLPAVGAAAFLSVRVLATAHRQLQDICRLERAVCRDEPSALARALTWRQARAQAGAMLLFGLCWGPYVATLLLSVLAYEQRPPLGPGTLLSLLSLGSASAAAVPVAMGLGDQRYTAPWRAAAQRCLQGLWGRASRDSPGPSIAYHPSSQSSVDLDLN
The experiment is described as follows: TGR5/CRE Luciferase Assay (hTGR5). The settings on record: for EC50: HEK 293 cells co-transfected with pCMV tag4b-TGR5h and pCRE TA-Luciferase, overnight incubation; for hTGR5 % trans: percentage of the 10 μM LCA value, HEK 293 cells transfected with hTGR5. Format: cell-based. The method in brief:
(§1)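 cAMP-dependent luciferase luminescence was measured after overnight compound exposure (duplicate concentration series) and fitted to a four-parameter logistic equation. Cells: HEK293 transiently co-expressing hTGR5 or mTGR5 with a CRE reporter; lithocholic acid at 10 μM was the reference agonist.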

In experiment [2] the target is T2, mTGR5 (Mus musculus, UniProt Q80SS6).
T2 construct: expressed in transfected cells; host or cells: HEK293 cells, transiently co-transfected with the pCRE TA-Luciferase reporter
T2 sequence (Q80SS6 1-329): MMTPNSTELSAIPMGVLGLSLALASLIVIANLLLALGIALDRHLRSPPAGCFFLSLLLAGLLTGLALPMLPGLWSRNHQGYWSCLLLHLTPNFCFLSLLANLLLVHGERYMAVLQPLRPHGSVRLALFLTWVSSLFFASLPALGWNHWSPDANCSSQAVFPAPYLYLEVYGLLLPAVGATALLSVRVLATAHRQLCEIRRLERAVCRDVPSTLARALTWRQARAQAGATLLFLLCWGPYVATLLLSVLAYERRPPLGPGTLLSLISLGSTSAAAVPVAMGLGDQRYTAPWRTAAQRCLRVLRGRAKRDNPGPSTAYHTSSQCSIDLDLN
The experiment is described as follows: TGR5/CRE Luciferase Assay (mTGR5). Format: cell-based. The settings on record: for EC50: HEK 293 cells co-transfected with pCMV AC6-TGR5m and pCRE TA-Luciferase, overnight incubation; for mTGR5 % trans: percentage of the 10 μM LCA value, HEK 293 cells transfected with mTGR5. The method in brief:
as §1

The EC50 is the concentration at which the effect is half-maximal. Higher therefore signals a less potent agent. In experiment [1], `COCCN1C(=O)CC(c2ccc(Cl)cc2)C(C(=O)OCc2ccc(C#N)cc2)=C1C` (centres unmarked) [Example 95, (4-cyanophenyl)methyl 4-(4-chlorophenyl)-1-(2-methoxyethyl)-6-methyl-2-oxo-3,4-dihydropyridine-5-carboxylate] returned an EC50 of 0.2 µM and a hTGR5 % trans of 78%. Moreover, in experiment [2], a half-maximal response (EC50) required 0.3 µM and the mTGR5 % trans came out at 76%.
In experiment [1], `COCCN1C(=O)CC(c2ccc(Cl)cc2)C(C(=O)OCCc2ccccc2)=C1C` (centres unmarked) [Example 110, 2-phenylethyl 4-(4-chlorophenyl)-1-(2-methoxyethyl)-6-methyl-2-oxo-3,4-dihydropyridine-5-carboxylate] yielded an EC50 of 2.3 µM and a hTGR5 % trans of 50%. Moreover, in experiment [2], the EC50 came to 1.6 µM and the mTGR5 % trans came to 42%.
`COCCN1C(=O)CC(c2ccc(Cl)cc2)C(C(=O)OCc2ccccc2C)=C1C` (centres unmarked) [Example 98, o-tolylmethyl 4-(4-chlorophenyl)-1-(2-methoxyethyl)-6-methyl-2-oxo-3,4-dihydropyridine-5-carboxylate]: the EC50 turned out to be 0.3 µM in experiment [1] and 0.5 µM in experiment [2].
As for `O=C(OCc1ccccc1)C1=CN(CC2CC2)C(=O)CC1c1ccc(Cl)cc1` (centres unmarked) [Compound 29, Benzyl 4-(4-chlorophenyl)-1-(cyclopropylmethyl)-2-oxo-3,4-dihydropyridine-5-carboxylate], in experiment [1], the response was half-maximal at 1.26 µM (EC50) and the hTGR5 % trans is 59%. In experiment [2], this compound gave an EC50 of 1.5 µM and a mTGR5 % trans of 37%.
For `CC1=C(C(=O)OCc2ccccc2)C(c2ccc(C(F)(F)F)cc2)CC(=O)N1` (centres unmarked) [Compound 9, 2-Methyl-6-oxo-4-(4-trifluoromethyl-phenyl)-1,4,5,6-tetrahydro-pyridine-3-carboxylic acid benzyl ester], in experiment [1], the EC50 came out at 1.5 µM and the hTGR5 % trans was 48%. In experiment [2], the response was half-maximal at 1.4 µM (EC50) and the mTGR5 % trans is recorded as 37%.
As to `COCCN1C(=O)CC(c2ccc(Cl)cc2)C(C(=O)OCc2ccc(OCCC[N+](C)(C)C)cc2)=C1C.[I-]` (centres unmarked) [Example 117, 3-[4-[[4-(4-chlorophenyl)-1-(2-methoxyethyl)-6-methyl-2-oxo-3,4-dihydropyridine-5-carbonyl]oxymethyl]phenoxy]propyl-trimethyl-ammonium; iodide], in experiment [1], the EC50 was determined as 1.6 µM and the hTGR5 % trans came out at 74%. Further, in experiment [2], a half-maximal effect (EC50) was put at 4.2 µM and the mTGR5 % trans stood at 77%.
In experiment [1], `CC1=C(C(=O)OCc2ccccc2)C(c2ccc(Cl)cc2)CC(=O)N1CC1C[N+](C)(C)C1.[I-]` (centres unmarked) [Compound 48, Benzyl 4-(4-chlorophenyl)-1-[(1,1-dimethylazetidin-1-ium-3-yl)methyl]-6-methyl-2-oxo-3,4-dihydropyridine-5-carboxylate iodide] had an EC50 of 12 µM and a hTGR5 % trans of 13%. This compound had a mTGR5 % trans in experiment [2] of 0%.
`COCCN1C(=O)CC(c2ccncc2)C(C(=O)OCc2ccccc2OC)=C1C` (centres unmarked) [Example 133, (2-methoxyphenyl)methyl 1-(2-methoxyethyl)-6-methyl-2-oxo-4-(4-pyridyl)-3,4-dihydropyridine-5-carboxylate]: in experiment [1], the midpoint of the response, the EC50, lay at 8.6 µM and the hTGR5 % trans is given as 72%. In experiment [2], this compound gave an EC50 of 4.9 µM and a mTGR5 % trans of 83%.
Turning to `CC1=C(C(=O)OCc2ccccc2)C(c2ccccc2C(F)(F)F)CC(=O)N1` (centres unmarked) [Compound 7, 2-Methyl-6-oxo-4-(2-trifluoromethyl-phenyl)-1,4,5,6-tetrahydro-pyridine-3-carboxylic acid benzyl ester], in experiment [1], a half-maximal effect (EC50) was put at 5 µM and the hTGR5 % trans was 22%. This compound also gave a mTGR5 % trans in experiment [2] of 14%.
